Data as given in US20250090699A1, “FAP TARGETING CYCLIC PEPTIDES AND CONJUGATES THEREOF” (Novartis AG, priority 2023, published 2025).
Starred links: 1 amine or outer side, 2 acyl side, 3 side chain; linkers in the order of their positions; H or OH if unused. Positions of bridges follow the written chain, without caps; N, C: chain ends. Non-standard residues stand in square brackets, D forms with d. Residues, ends and D or L forms follow the SMILES beside them. Groups on a side chain read outwards from the residue. Chains are numbered I, II in the order given. *: point of attachment. F4(amMeGlyDOTALu) = lutetium complex of (S)-2,2',2''-(10-(2-((2-((4-(2-amino-2-carboxyethyl)benzyl)amino)-2-oxoethyl)(methyl)amino)-2-oxoethyl)-1,4,7,10-tetraazacyclododecane-1,4,7-triyl)triacetic acid (Phe with 4-aminomethyl-N-methyl-Gly-D, CN(CC(=O)NCc1ccc(C[C@H](N[*:1])C(=O)[*:2])cc1)C(=O)CN1CCN(CC(=O)[O-])CCN(CC(=O)[O-])CCN(CC(=O)[O-])CC1.[Lu+3]; X2 = O=C(O)CN1CCN(CC(=O)O)CCN(CC(=O)NC(CC(=O)NCCOCCOCCOCC(=O)[*:1])CC(=O)NCCOCCOCCOCC(=O)[*:2])CCN(CC(=O)O)CC1; X1 = O=C(O)CN1CCN(CC(=O)O)CCN(CC(=O)NC(CC(=O)NCCOCCOCC(=O)[*:1])CC(=O)NCCOCCOCC(=O)[*:2])CCN(CC(=O)O)CC1; DOTA = O=C(O)CN1CCN(CC(=O)O)CCN(CC(=O)*)CCN(CC(=O)O)CC1; Phe(4-CH2NH2) = NCc1ccc(C[C@H](N)C(=O)O)cc1; Piperazinyl(4-CH2COOH) = O=C(O)CN1CCN(*)CC1; AEF = NCCOc1ccc(C[C@H](N)C(=O)O)cc1; NMeF = CN[C@@H](Cc1ccccc1)C(=O)O; Ahp(2) = CCCCC[C@H](N)C(=O)O; hSer = N[C@@H](CCO)C(=O)O; AEEA = NCCOCCOCC(=O)O; CO = O=C([*:1])[*:2]; Propyl = CCC*

Assays:
mouse FAP [1] = target: T1, mouse FAP (Mus musculus, UniProt P97321); test: Surface plasmon resonance (SPR) for peptide affinity, mouse FAP; format: binding
T1 construct: biotinylated His, Avi tag, mouse FAP (26-761, FAP-M82Q5); His; Avi tag (biotinylated); purchased AcroBiosystems FAP-M82Q5
T1 sequence (P97321 26-761): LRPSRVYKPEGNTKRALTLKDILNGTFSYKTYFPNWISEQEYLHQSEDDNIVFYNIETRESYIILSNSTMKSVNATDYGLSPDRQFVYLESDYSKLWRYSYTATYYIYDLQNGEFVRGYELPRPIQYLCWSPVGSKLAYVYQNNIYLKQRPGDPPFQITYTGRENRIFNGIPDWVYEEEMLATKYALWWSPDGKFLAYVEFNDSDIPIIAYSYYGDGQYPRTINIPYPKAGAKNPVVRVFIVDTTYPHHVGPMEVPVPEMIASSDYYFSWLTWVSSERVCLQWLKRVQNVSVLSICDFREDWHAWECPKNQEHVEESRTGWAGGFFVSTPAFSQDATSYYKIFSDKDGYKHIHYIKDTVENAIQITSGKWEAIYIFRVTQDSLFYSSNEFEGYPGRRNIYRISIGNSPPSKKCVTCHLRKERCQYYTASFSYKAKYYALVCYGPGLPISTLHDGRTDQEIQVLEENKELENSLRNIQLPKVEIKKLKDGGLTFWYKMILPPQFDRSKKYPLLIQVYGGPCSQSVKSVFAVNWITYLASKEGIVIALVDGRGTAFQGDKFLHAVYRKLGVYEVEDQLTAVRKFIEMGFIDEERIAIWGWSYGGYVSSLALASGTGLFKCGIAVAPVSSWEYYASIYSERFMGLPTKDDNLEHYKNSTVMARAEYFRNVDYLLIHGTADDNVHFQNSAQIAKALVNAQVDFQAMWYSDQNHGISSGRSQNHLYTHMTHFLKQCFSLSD
In short: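 KD values come from a 1:1 kinetic fit of single-cycle SPR data: 8 peptide concentrations, 25 °C, 30 μL/min, HEPES-buffered saline pH 7.6 with 2% DMSO. Targets were His/Avi-tagged human (26-760) or mouse (26-761) FAP, amine-coupled to CM5 or held on a CAPture chip.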

mouse FAP [2] = target: T1, mouse FAP; test: Enzymatic FAP competition assay (Z-Gly-Pro-AMC fluorescence), mouse FAP; format: biochemical; conditions: read-out: m. FAP, Enz., IC50
In short: (§1)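 IC50 values come from curve fitting of duplicate % inhibition data on AMC fluorescence (ex 380, em 460 nm) after 4 h at 22-24° C with 50 μM Z-Gly-Pro-AMC. Beforehand, peptides up to 1 μM (14 levels) sat 24 h with 0.01 nM human (26-760) or mouse (26-761) tagged FAP in phosphate buffer pH 7.5, NaCl, Tween20, 1% DMSO.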

human FAP [3] = target: T2, human FAP (Homo sapiens, UniProt Q12884); test: Surface plasmon resonance (SPR) for peptide affinity, human FAP; format: binding; conditions: read-out: h. FAP, SPR, KD
T2 construct: the biotinylated His, Avi tag, human FAP (26-760, FAP-H82Q6); His; Avi tag (biotinylated); purchased AcroBiosystems FAP-H82Q6
T2 sequence (Q12884 26-760): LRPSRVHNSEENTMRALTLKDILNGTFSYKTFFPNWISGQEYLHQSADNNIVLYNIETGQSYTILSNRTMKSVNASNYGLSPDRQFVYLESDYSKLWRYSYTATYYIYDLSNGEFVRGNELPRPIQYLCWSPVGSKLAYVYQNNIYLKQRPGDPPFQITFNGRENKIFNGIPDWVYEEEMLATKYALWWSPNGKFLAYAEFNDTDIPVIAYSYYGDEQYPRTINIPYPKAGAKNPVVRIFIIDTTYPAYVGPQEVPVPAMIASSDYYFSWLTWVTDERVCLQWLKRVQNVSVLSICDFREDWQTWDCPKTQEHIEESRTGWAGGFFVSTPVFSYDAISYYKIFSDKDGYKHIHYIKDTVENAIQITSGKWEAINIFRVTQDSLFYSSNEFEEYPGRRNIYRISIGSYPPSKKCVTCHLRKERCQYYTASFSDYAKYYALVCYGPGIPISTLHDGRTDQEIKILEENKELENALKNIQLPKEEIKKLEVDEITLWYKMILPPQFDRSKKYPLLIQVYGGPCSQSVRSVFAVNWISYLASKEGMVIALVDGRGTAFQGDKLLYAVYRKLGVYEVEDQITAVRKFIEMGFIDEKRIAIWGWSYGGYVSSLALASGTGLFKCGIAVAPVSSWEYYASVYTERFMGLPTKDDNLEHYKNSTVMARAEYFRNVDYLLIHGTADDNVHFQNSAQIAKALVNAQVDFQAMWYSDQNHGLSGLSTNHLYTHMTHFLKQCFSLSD
Procedure: Peptide affinities (KD) were determined by SPR using a Biacore™ 8K device (Cytiva) towards the following proteins: biotinylated His, Avi tag, human FAP (26-760, FAP-H82Q6), biotinylated His, Avi tag, mouse FAP (26-761, FAP-M82Q5), His tag, human DPP4 (34-766, DP4-H82E3), all purchased from AcroBiosystems and His tag, mouse DPP4 (29-760, 954-SE) from R&D Systems. The FAP proteins and their homologous were diluted to a concentration of 2 μg/mL into acetate buffer pH 5.5, then immobilized onto a CM5 sensorchip (Cytiva, BR-1005-30) to reach a response around 2000 R U. The running buffer HBS-EP+pH 7.6 (20× from Teknova CAT. No: H8022) contained 10 mM HEPES pH 7.6, 150 mM NaCl, 3 mM EDTA, 0.05% Tween20 and 2% DMSO. Experiments were carried out at 25° C. using a flow rate of 30 μL/min. Compounds were tested in single cycle kinetic mode at 8 different concentrations. Curve fitting was performed using the Biacore™ 8K evaluation software. The sensorgrams were fitted by applying a 1:1 binding model to calculate kinetic rate constants and equilibrium dissociation constants (KD).
For this assay, the setup had the same conditions (flow rate, running buffer, peptide dilution) as described above for the CM5 method. The oligo CAP reagent obtained in the CAPture Kit (Ref. 28920234) was 1/5 diluted into running buffer and used with a contact time of 300 s at a flow rate of 2 μL/min. The human and mouse FAP constructs described above were used (from AcroBiosystems or produced in house). The FAP proteins were diluted to a concentration of 2 μg/mL into acetate pH 5.5, 0.05% Tween20 and used with a contact time of 600 s at a flow rate of 10 μL/min. The peptides were tested with an association time of 280 s followed by a dissociation time of 3000 s at a flow rate of 30 μL/min. The regeneration was done using the regeneration solution (8 M guanidine-HCl, 1 M NaOH) as obtained with a contact time of 270 s at a flow rate of 10 μL/min. […] The compounds marked with an asterisk were tested against human and mouse DDP4.

human FAP [4] = target: T2, human FAP; test: Enzymatic FAP competition assay (Z-Gly-Pro-AMC fluorescence), human FAP; format: biochemical; conditions: read-out: h. FAP, Enz., IC50
In short: as §1

Kd (mouse FAP [1]) [pM]	IC50 (mouse FAP [2]) [pM]	Kd (human FAP [3]) [pM]	IC50 (human FAP [4]) [pM]	Compound
510	1100	320	380	CCCCC[C@@H]1NC(=O)[C@H](Cc2ccc(OCCNC(=O)COCCOCCOCCNC(=O)CC(CC(=O)NCCOCCOCCOCC(=O)NCCOc3ccc(C[C@@H]4NC(=O)[C@H](Cc5ccccc5)N(C)C(=O)CNC(=O)[C@H](CCCCNC(=O)N5CCN(CC(=O)O)CC5)NC(=O)[C@H]5CCCN5C(=O)[C@H](CC(=O)O)NC(=O)[C@H](Cc5ccc(O)cc5)NC(=O)CNC(=O)[C@H](Cc5c[nH]c6ccccc56)NC(=O)[C@H](CCCCC)NC4=O)cc3)NC(=O)CN3CCN(CC(=O)O)CCN(CC(=O)O)CCN(CC(=O)O)CC3)cc2)NC(=O)[C@H](Cc2ccccc2)N(C)C(=O)CNC(=O)[C@H](CCCCNC(=O)N2CCN(CC(=O)O)CC2)NC(=O)[C@H]2CCCN2C(=O)[C@H](CC(=O)O)NC(=O)[C@H](Cc2ccc(O)cc2)NC(=O)CNC(=O)[C@H](Cc2c[nH]c3ccccc23)NC1=O [Example M4] (I: cyclo(K([CO-Piperazinyl(4-CH2COOH)])G[NMeF][AEF][Ahp(2)]WGYD[dP]) / II: cyclo(K([CO-Piperazinyl(4-CH2COOH)])G[NMeF][AEF][Ahp(2)]WGYD[dP]); linker I:4-II:4 via X2)
< 78	144	< 43	35	CCCOCC[C@@H]1NC(=O)[C@H](Cc2ccc(CNC(=O)COCCOCCNC(=O)CC(CC(=O)NCCOCCOCC(=O)NCc3ccc(C[C@@H]4NC(=O)[C@H](Cc5ccccc5)N(C)C(=O)CNC(=O)CNC(=O)[C@H]5CCCN5C(=O)[C@H](CC(=O)O)NC(=O)[C@H](CCCCNC(=O)N5CCN(CC(=O)O)CC5)NC(=O)CNC(=O)[C@H](Cc5c[nH]c6ccccc56)NC(=O)[C@H](CCOCCC)NC4=O)cc3)NC(=O)CN3CCN(CC(=O)O)CCN(CC(=O)O)CCN(CC(=O)O)CC3)cc2)NC(=O)[C@H](Cc2ccccc2)N(C)C(=O)CNC(=O)CNC(=O)[C@H]2CCCN2C(=O)[C@H](CC(=O)O)NC(=O)[C@H](CCCCNC(=O)N2CCN(CC(=O)O)CC2)NC(=O)CNC(=O)[C@H](Cc2c[nH]c3ccccc23)NC1=O [Example M3] (I: cyclo(GG[NMeF][Phe(4-CH2NH2)][hSer](Propyl)WGK([CO-Piperazinyl(4-CH2COOH)])D[dP]) / II: cyclo(GG[NMeF][Phe(4-CH2NH2)][hSer](Propyl)WGK([CO-Piperazinyl(4-CH2COOH)])D[dP]); linker I:4-II:4 via X1)
< 22	18	< 13	7	CCCOCC[C@@H]1NC(=O)[C@H](Cc2ccc(CNC(=O)COCCOCCNC(=O)CN3CCN(CC(=O)O)CCN(CC(=O)O)CCN(CC(=O)O)CC3)cc2)NC(=O)[C@H](Cc2ccccc2)N(C)C(=O)CNC(=O)CNC(=O)[C@H]2CCCN2C(=O)[C@H](CC(=O)O)NC(=O)[C@H](CCCCNC(=O)N2CCN(CC(=O)O)CC2)NC(=O)CNC(=O)[C@H](Cc2c[nH]c3ccccc23)NC1=O [Example B2, Gly-Gly-NMePhe-F(4ampEG2NHDOTA)-hS(Pr)-Trp-Gly-K(COpipzaa)-Asp-D-Pro] (cyclo(D[dP]GG[NMeF][Phe(4-CH2NH2)]([AEEA-DOTA])[hSer](Propyl)WGK([CO-Piperazinyl(4-CH2COOH)])))
6	12	4	7	Gly-Gly-NMePhe-F4(amMeGlyDOTALu)-Ahp-Trp-Gly-Tyr-Asp-D-Pro (cyclo(GG[NMeF][F4(amMeGlyDOTALu)][Ahp(2)]WGYD[dP]); also: Lu complex) [Example C8]
